{
  "source": "patent US8747901B2",
  "about": "(Reata Pharmaceuticals, Inc., priority 2009, dated 2014)",
  "conditions": "human, in vivo",
  "experimental": "The synthetic triterpenoid bardoxolone methyl, also known as CDDO-Me and as “RTA 402,” has shown potent anti-inflammatory and anti-tumor properties in preclinical studies and in human clinical trials. […] In these studies bardoxolone methyl was administered orally in a crystalline form (“Form A”), once daily, at a variety of doses.",
  "data": [
    {"compound": "COC(=O)[C@]12CCC(C)(C)C[C@H]1[C@H]1C(=O)C=C3[C@@]4(C)C=C(C#N)C(=O)C(C)(C)[C@@H]4CC[C@@]3(C)[C@]1(C)CC2", "note": "[Form A bardoxolone methyl, bardoxolone methyl]", "values": [
      {"measurement": "oral bioavailability", "value": "relatively low oral bioavailability"},
      {"measurement": "tolerability profile", "setting": "po", "value": "excellent tolerability profile with very few drug-related side effects"}
    ]}
  ]
}
